Assays:
PDE4 = PDE4 isolated enzyme two-step radioenzymatic PDE assay; type: biochemical; settings: 1 µM cAMP substrate, 30°C, 30 min; read-out: inhibition concentration value (IC50)
Rat cortical neurons = test: Aβ oligomer-induced neuronal death, MTT assay; type: cell-based, Wistar rat; settings: 24 h
Description: Cell culture: Cortical neurons from embryonic day 16-17 Wistar rat fetuses were prepared as follows. Dissociated cortical cells were plated at 4.5-5.0 10^4 cells/cm^2 in plastic dishes precoated with 1.5 mg/mL polyornithine (Sigma). Cells were cultured in a chemically defined Dulbecco's modified eagle's/F12 medium free of serum (Gibco) and supplemented with hormones, proteins and salts. Cultures were kept at 35°C in a humidified 5% CO2 atmosphere, and at 6-7 DIV, cortical population was determined to be at least 97% neuronal by immunostaining.
Preparation of low-n β-amyloid (Aβ) oligomers: The peptide used is Aβ1-42 from Bachem (ref H1368, batch number: 1025459). The oligomeric preparation contains a mixture of stable dimers, trimers and tetramers of Aβ1-42 peptide, as well as monomeric forms of the peptide.
Preparation of tivozanib solution: Tivozanib was dissolved in DMSO. A stock solution (10 mM DMSO) was prepared, and aliquots were stored at -20 °C before use.
Treatment and measurement of cell viability: All experiments were done in 48 well plates. […] Following 24h of incubation, neuronal viability was monitored using the MTT assay (Garcia et al., The Journal of Neuroscience, June 2,2010, 30(22), 7516-7527; Desbene et al., Neurobiology of Aging, 33 (2012) 1123.e17-1123.e-29). Data were obtained from one experiment with 4 determinations each and expressed as means + SD.

[1] = test system: cAMP level in HEK293 cells; test: Measurement of cAMP level by ELISA; type: cell-based
Description: Measurement of cAMP level: HEK293 cells were cultured in DMEM medium containing 10 % FCS. Cells were plated in 12-well plates at a density of 400.000 cells per well and cultured for 24h at 37°C in a humidified 6% CO2 atmosphere. Cells were then incubated for 1 h with increasing concentrations of tivozanib and then treated with vehicle or 25 µM forskolin for 15 minutes. Following washing steps and cell lysis, cellular level of cAMP level was monitored using an ELISA assay (Cyclic AMP XP assay kit - Cell signaling). Data are from 2 experiments performed in duplicate. Data are represented as fold increase of cAMP as compared to experiment using forskolin only, designed as 1.0 (figure 7).
Effects of tivozanib on cAMP level in HEK293 cells: In order to evaluate the potential effect of tivozanib on PDE4 activity in living cells, the HEK293 cell line was used. These cells are widely used for identification and validation of PDE4 modulators in mild as well as high throughput screening assays. Indeed, the control of cAMP level and hydrolysis in HEK293 cells are predominantly supported by PDE4.

Male C57BL/6 mice = test: Y-maze test of spatial working memory after icv Aβ oligomers; type: in vivo
Description: Animals: All animal experiments were carried out according to the National Institute of Health (NIH) guidelines for the care and use of laboratory animals, and approved by the French Ministry for Research and Technology. Animals were housed at a standard temperature (22±1°C) and in a light-controlled environment (lights on from 7 am to 8 pm) with ad libitum access to food and water. Upon arrival, Male C57BL/6 mice (C57BL/6J Rj, ref SC-CJ-12w-M, Janvier, France) were group housed. From 1 week before the experiment started and until the end of the experiment, mice were individually housed. Animals were monitored twice-a-day by laboratory personnel (8 am and 4 pm). […]
Surgery and intracerebroventricular (icv) infusion of low-n Aβ oligomers: Immediate spatial working memory performance was assessed by recording spontaneous alternation behavior in a Y-maze system, as previously described (Youssef et al., Neurobiology of Aging, 29 (2008) 1319-1333; Garcia et al., The Journal of Neuroscience, June 2,2010, 30(22) 7516-7527). […]
Investigation of the spatial working memory - Y maze test: Immediate spatial working memory performance was assessed by recording spontaneous alternation behavior in a Y-maze system, as previously described (Youssef et al., 2008; Garcia et al., 2010, see references above). […]

| Compound | IC50 (PDE4) | Aβ oligomer-induced cell death (cell viability, MTT) (Rat cortical neurons; tivozanib up to 10 µM added simultaneously with 1 µM Aβ1-42 oligomers) | cAMP level ([1]; absence of forskolin, increasing concentrations up to 50 µM, 1 h) | cAMP level ([1]; presence of 25 µM forskolin for 15 minutes, increasing concentrations, 1 h pre-incubation) | behavior and spontaneous alternation performance (Male C57BL/6 mice; group C: 30 mg/kg/day per os, vehicle icv, test day +4) | spatial working memory (spontaneous alternation) (Male C57BL/6 mice; group D: 30 mg/kg/day per os day -2 to +4, Aβ oligomers 50 pmol icv day 0, test day +4) | decrease of cell viability (Rat cortical neurons; 1 µM Aβ1-42 oligomers alone, figure 6B CTRL) |
| --- | --- | --- | --- | --- | --- | --- | --- |
| COc1cc2nccc(Oc3ccc(NC(=O)Nc4cc(C)on4)c(Cl)c3)c2cc1OC [tivozanib, N-{2-chloro-4-[(6,7-dimethoxy-4-quinolyl)oxy]-phenyl}-N'-(5-methyl-3-isoxazolyl)urea] | 4.8 µM | protected cells towards Aβ oligomer-induced cell death | did not result in an increase of cAMP level | dose-response accumulation of cAMP | displayed a normal behavior | significantly improved spatial working memory |  |
| Aβ1-42 oligomers |  |  |  |  |  |  | ~40% |
